From paper PMC13324451 (The Journal of Biological Chemistry, 2026)

Biological target: T1, RhsF-CT (Chromobacterium violaceum, UniProt Q7NY44)
T1 construct: gene CV_1431; C-terminal toxin domain, residues 1393-1513, 14 kDa; His6-TEV tag, apparently kept
Assay type: biochemical

**Q.** With `NC(=O)c1ccc[n+]([C@@H]2O[C@H](COP(=O)(O)OP(=O)(O)OC[C@H]3O[C@@H](n4cnc5c(N)ncnc54)[C@H](O)[C@@H]3O)[C@@H](O)[C@H]2O)c1` [NAD^+] as the compound, how does the “RNA ADP-ribosylation, TBE-urea gel and anti-ADP-ribose immunoblot” value read?
**A.** The value was “indicating that RhsF-CT can transfer ADP-ribose from NAD^+ to the RNA”.
